Laboratory results taken from US20120183614A1, “POLYPHENOL COMPOUND ABSORPTION PROMOTER AND UTILIZATION OF SAME” (priority 2009, published 2012).

Tests used:
[1] = Catechin compounds in human plasma after Camellia sinensis (L.) O. Kuntze extract with sodium malate (Test Example 9); type: in vivo; settings: humans, 135 mg with Camellia sinensis (L.) O. Kuntze extract (195 mg catechin compounds), oral; total of five catechin compounds
Method: The effect of malic acid on absorption of a catechin compound in humans was examined. Five healthy men and women which were 20 years old or more and less than 65 years old were selected as test subjects, and a test was performed on the effect of increasing the amount of the catechin compound remaining in blood by ingesting sodium malate simultaneously with the Camellia sinensis (L.) O. Kuntze extract. […]
The test was performed by a crossover test as described below. […] In the same manner as in Test Example 4, concentrations of the catechin compounds in plasma were measured by the HPLC-ECD method (electrochemical detection method). […] As the second phase, concentrations of the catechin compounds in plasma were measured under the same conditions as those in the first phase except that each subject ingested the control substance. It should be noted that the concentrations of the catechin compounds were determined as a total concentration of five kinds of catechin compounds including EGCG, 3″-O-methylepigallocatechin gallate, epigallocatechin, epicatechin gallate, and epicatechin.

[2] = EGCG in rat plasma after oral administration of green tea extract solution with serine and malic acid (Test Example 4); type: in vivo, rats; settings: rat plasma after administration solutions (i) to (iv)
Method: The final EGCG concentration derived from the green tea extract contained in each administration solution was adjusted to 1 mM. […] During the recuperation period, the rats were fed individually in cages equipped with floor nets and allowed to ingest CE-2 feed (manufactured by CLEA Japan, Inc.) freely. […] The EGCG concentration in plasma was measured as follows: […] Isocratic elution was performed at a sample injection volume to the column of 20 μL using 0.1% phosphoric acid containing 0.1 mM EDTA·2Na:acetonitrile=90:10 as the mobile phase at a flow rate of 0.4 mL/min. […] The retention time of the EGCG standard substance was 8.0 minutes, and the detection sensitivity was 2 nM. The EGCG concentrations in actual administration solutions were also analyzed again, and it was confirmed that EGCG was administered to the rats in scheduled amounts. Rat plasma collected after administration of each of the administration solutions (i), (ii), (iii), and (iv) was treated and subjected to HPLC analysis as mentioned above. […] In other words, it was considered that most of EGCG in blood was absorbed in blood as an unconjugated free body.

[3] = Stability of EGCG in the chorionic side HBSS solution; type: physicochemical; settings: chorionic side HBSS solution with 1 mM ascorbic acid, pH 5.5
Method: In addition, the EGCG absorption capacity of the Caco-2 cells was maintained constantly for 4 hours or more by adding 10 mM glutamine to the HBSS solutions of the chorionic side and serosal side in the measurement system.

[4] = EGCG absorbability in rats, mixed administration solutions (Test Example 8); type: in vivo; settings: oral, 1 mM EGCG, Fisher's PLSD
From the text: The reason why the significant differences are found in EGCG absorbability between the Camellia sinensis (L.) O. Kuntze extracts and the usual green tea extracts although both are extracts obtained by the same hot-water extraction procedures is probably that substances contained in the extracts differ from each other. That is, the green tea extracts may contain an ingredient which inhibits EGCG absorption, or the Camellia sinensis (L.) O. Kuntze extracts may contain an ingredient which promotes EGCG absorption. In order to gain the chance of investigation of the possibility, an experiment shown in this test example was performed. Specifically, a Camellia sinensis (L.) O. Kuntze extract solution, a usual green tea extract solution, and an EGCG reagent solution were prepared so as to have the same EGCG concentration, and solutions obtained by mixing the solutions in appropriate combination were administered to rats to investigate changes in EGCG absorbability. […] In the same manner as in Test Example 7, the administration solutions were orally administered forcibly to rats mounted with a cannula in the vein, and EGCG concentrations in plasma obtained by blood collection performed with time after administration were measured and converted into areas under curve to compare amounts of EGCG remaining in blood. […]

Caco-2 cells = test: In vitro EGCG absorption measurement system, Caco-2 cell monolayer on Transwell (Papp of EGCG, chorionic to serosal side)
Method: An orally-ingested polyphenol compound, in particular, catechin compound is considered to be absorbed mainly in the intestinal tract, especially the small intestine in the body. […]
The Caco-2 cells were cultured in the presence of humidified air containing 5% CO2 in a Dulbecco's modified Eagle medium (DMEM, pH 7.4; manufactured by GIBCO) containing 10% inactivated fetal bovine serum (manufactured by HyClone), 50 U/mL penicillin-50 μg/mL streptomycin (manufactured by GIBCO), and a 1% non-essential amino acid (manufactured by GIBCO) in a plastic flask of 75 cm^2. The cells were maintained by performing subculture every 5 to 8 days when the cells reached 80 to 90% confluence. An EGCG absorption experiment to be described below was performed using Caco-2 cells which had been subcultured 30 to 70 times.
The EGCG absorption experiment was performed using a Caco-2 cell monolayer cultured on a Transwell with a diameter of 12 mm (polycarbonate filter culture area: 1.13 cm^2, pore size: 0.4 μm; manufactured by Corning). […] Transepithelial electrical resistance (hereinafter, referred to as “TEER”) was measured using a Millicell ERS meter (manufactured by Millipore) to monitor the degree of completion of a tight junction of the cell monolayer, and a monolayer which had been confirmed that formation of the tight junction had been completed was used in the experiment. […]

Caco-2 cell monolayer = test: Transepithelial electrical resistance (TEER) of the Caco-2 cell monolayer; type: cell-based, human; settings: EGCG reagent added at different concentrations to the chorionic side, 3-hour measurement period
Method: The EGCG absorption experiment was performed using a Caco-2 cell monolayer cultured on a Transwell with a diameter of 12 mm (polycarbonate filter culture area: 1.13 cm^2, pore size: 0.4 μm; manufactured by Corning). The Caco-2 cells were inoculated onto an insert of the Transwell at a density of 1.0×10^5 cells/cm^2, and culture was continued while the medium was exchanged for a fresh one every 2 days. Transepithelial electrical resistance (hereinafter, referred to as “TEER”) was measured using a Millicell ERS meter (manufactured by Millipore) to monitor the degree of completion of a tight junction of the cell monolayer, and a monolayer which had been confirmed that formation of the tight junction had been completed was used in the experiment. […]
The medium of the upper part of the Transwell insert on which the Caco-2 cell monolayer was placed (chorionic side) was replaced by a Hanks' Balanced Salt Solution-like Transport Medium having a pH of 5.5 (chorionic side HBSS solution; containing 10 mM MES, 5 mM glucose, 10 mM glutamine, and 1 mM ascorbic acid), and the medium of the lower part of the insert (serosal side) was replaced by HBSS having a pH of 7.4 (serosal side HBSS solution; containing […], 5 mM glucose, 10 mM glutamine, and 1 mM ascorbic acid). […] The cells were incubated for 30 minutes, and TEER was measured again. […]

[5] = EGCG absorbability in rats, Camellia sinensis (L.) O. Kuntze extracts versus green tea extracts (Test Example 7); type: in vivo; settings: rat plasma
From the text: For Camellia sinensis (L.) O. Kuntze extracts (Camellia sinensis (L.) O. Kuntze tea hot water extract manufactured by ASAHI SOFT DRINKS CO., Ltd.; lot 1 [i], lot 2 [ii], and lot 3 [iii]) and green tea extracts (green tea hot water extract manufactured by San-Ei Gen F.F.I., Inc.; lot 4 [iv] and lot 5 [v]), absorbability of EGCG by rats were compared. […] During the recuperation period, the rats were fed individually in cages equipped with floor nets and allowed to ingest CE-2 feed (manufactured by CLEA Japan, Inc.) freely. The numbers of samples of the administration solutions are as follows: [i] Camellia sinensis (L.) O. Kuntze extract lot 1-administered group: n=7; [ii] Camellia sinensis (L.) O. Kuntze extract lot 2-administered group: n=7; [iii] Camellia sinensis (L.) O. Kuntze extract lot 3-administered group: n=6; [iv] green tea extract lot 4-administered group:n=5; and [v] green tea extract lot 5-administered group: n=4. […] The EGCG concentration in plasma was measured in the same manner as in Test Example 4. […] Isocratic elution was performed at a sample injection volume to the column of 20 μL using 0.1% phosphoric acid containing 0.1 mM EDTA·2Na:acetonitrile=90:10 as the mobile phase at a flow rate of 0.4 mL/min. […] The EGCG concentrations in actual administration solutions were also analyzed again, and it was confirmed that EGCG was administered to the rats in scheduled amounts. […]

Compound	AUC0→4h of total catechins in plasma relative to ingestion of no sodium malate [1] [times]	Change in EGCG concentration in plasma before and after deconjugation treatments with β-glucuronidase and sulfatase [2]	Stability of EGCG during the absorption experiment period [3]	Difference in mean values, EGCG concentrations in plasma × time (areas under curve) ([4]; labelled solution vs [ii] EGCG reagent + green tea extract)	Difference in mean values, EGCG concentrations in plasma × time (areas under curve) ([4]; labelled solution vs [iii] Camellia sinensis (L.) O. Kuntze extract + green tea extract)	EGCG absorbed in the form of a conjugate (deconjugation treatment of EGCG permeated to the serosal side) (Caco-2 cells)	TEER during the measurement period (Caco-2 cell monolayer)	Change in EGCG concentrations in plasma before and after the deconjugation treatment with β-glucuronidase and sulfatase [5]
O=C([O-])CC(O)C(=O)[O-].[Na+].[Na+] (centres unmarked) [sodium malate]	1.6	–	–	–	–	–	–	–
O=C(O[C@@H]1Cc2c(O)cc(O)cc2O[C@@H]1c1cc(O)c(O)c(O)c1)c1cc(O)c(O)c(O)c1 [EGCG, epigallocatechin gallate]	–	no changes	maintained completely and stably	0.0052	0.0009	no EGCG absorbed in the form of a conjugate	maintained well	not changed
